Like-named read-outs stand apart in the source and are kept apart here.
Experiments:
[1] = biological target: NF-κB p65 (Homo sapiens, UniProt Q04206); experiment: ELISA NF-κB p65 inhibition assay; type: cell-based; conditions: for ELISA NF-κB IC50: NF-κB p65, nuclear extract of HeLa cells treated with compound and TNF-α; for NF-κB inhibitory activity (in words): NF-κB p65 ELISA
[2] = test system: HL-60 cells; experiment: Cytotoxicity; conditions: HL-60 leukemia cells; for HL-60 ED50: 3–4 days, SRB
[3] = test system: HT-29 cells; experiment: Cytotoxicity; conditions: HT-29 colon cancer cells; for HT-29 ED50: 3–4 days, SRB
[4] = test system: HeLa cells; experiment: Cytotoxicity; conditions: for HeLa ED50: HeLa cervical cancer cells, 3–4 days, SRB
[5] = test system: HT-29 cells; experiment: Reactive oxygen species; type: cell-based; conditions: for Potentiating effect on intracellular ROS levels in the presence of H2O2: H2O2 50 μM
[6] = test system: HL-60 cells
[7] = test system: HT-29 cells
[8] = test system: HeLa cells
[9] = test system: mitochondria transmembrane potential; experiment: Mitochondria transmembrane potential; type: cell-based; conditions: 2 h treatment, JC-1
[10] = test system: NF-κB; experiment: NF-κB evaluation in whole cells; type: cell-based; conditions: HeLa cells, IL-1α stimulation; compound 8 at 5 μg/ml
[11] = test system: NFAT-1; experiment: NFAT-1 assay; type: cell-based; conditions: 30 min incubation
[12] = test system: P-388 cell line; conditions: cited from earlier work

NF-κB p65, sequence (Q04206 whole entry): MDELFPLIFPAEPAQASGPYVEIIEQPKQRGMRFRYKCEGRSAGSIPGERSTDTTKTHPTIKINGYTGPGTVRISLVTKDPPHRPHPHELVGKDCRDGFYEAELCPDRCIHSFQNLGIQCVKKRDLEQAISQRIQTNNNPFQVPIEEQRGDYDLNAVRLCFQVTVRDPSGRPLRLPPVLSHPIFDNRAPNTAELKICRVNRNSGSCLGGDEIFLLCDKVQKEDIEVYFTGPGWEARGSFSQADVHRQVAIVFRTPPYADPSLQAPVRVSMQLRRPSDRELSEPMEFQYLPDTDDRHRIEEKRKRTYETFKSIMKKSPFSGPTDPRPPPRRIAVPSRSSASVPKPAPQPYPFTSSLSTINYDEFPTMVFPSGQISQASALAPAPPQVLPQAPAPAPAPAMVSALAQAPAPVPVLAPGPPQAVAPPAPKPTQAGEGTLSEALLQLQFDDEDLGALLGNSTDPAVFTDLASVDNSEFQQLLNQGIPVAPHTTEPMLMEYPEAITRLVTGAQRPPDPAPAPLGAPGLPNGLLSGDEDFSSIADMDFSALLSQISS

Molecule	ELISA NF-κB IC50 [1]	HL-60 ED50 [2]	HT-29 ED50 [3]	HeLa ED50 [4]	Cytotoxicity against HL-60 (in words) [6]	also measured
C/C=C(\C)C(=O)O[C@@H]1C[C@@]2(C)[C@H]([C@@H]3C[C@@H]([C@@H]4OC4(C)C)O[C@@H]3OC(C)=O)CC[C@]2(C)[C@@H]2CC=C3C(C)(C)C(=O)C[C@H](O)[C@]3(C)[C@H]21 [Compound 2, bruceajavaninone A]	5.3 µg/mL	>20 µg/mL	>20 µg/mL	>20 µg/mL	–	–
C/C=C(\C)C(=O)O[C@@H]1C[C@]2(C)C(=CC[C@H]2[C@@H]2C[C@@H]([C@@H]3OC3(C)C)O[C@@H]2OC(C)=O)[C@@]2(C)[C@H]1[C@@]1(C)C=CC(=O)C(C)(C)[C@@H]1C[C@H]2OC(C)=O [Compound 4, bruceajavanone B]	1.0 µg/mL	1.1 µg/mL	>20 µg/mL	>20 µg/mL	selective cytotoxicity against the HL-60 cell line	Potentiating effect on intracellular ROS levels in the presence of H2O2 [5]: exerted a potentiating effect
COC(=O)[C@@]12OC[C@]34[C@H]([C@@H](O)[C@@H]1O)[C@@]1(C)CC(=O)C(O)=C(C)[C@@H]1C[C@H]3OC(=O)[C@H](OC(=O)/C=C(\C)C(C)C)[C@@H]24 [Compound 5, bruceantin]	–	0.0082 µg/mL	0.012 µg/mL	0.016 µg/mL	–	IC50 [1]: 35.7 µM; NF-κB inhibitory activity (in words) [1]: moderate NF-κB inhibitory activity; Cytotoxicity against HL-60 (in words) [2]: highly cytotoxic; Cytotoxicity against HT-29 (in words) [3]: highly cytotoxic; Cytotoxicity against HeLa (in words) ([4]; HeLa cells): highly cytotoxic
COC(=O)[C@@]12OC[C@]34[C@H]([C@@H](O)[C@@H]1O)[C@@]1(C)CC(=O)C(O)=C(C)[C@@H]1C[C@H]3OC(=O)[C@H](OC(=O)CC(C)C)[C@@H]24 [Compound 6, bruceine A]	–	0.069 µg/mL	1.6 µg/mL	0.6 µg/mL	highly cytotoxic	IC50 [1]: 4.21 µM; NF-κB inhibitory activity (in words) [1]: moderate NF-κB inhibitory activity; Cytotoxicity against HT-29 (in words) [7]: highly cytotoxic; Cytotoxicity against HeLa (in words) [8]: highly cytotoxic
COc1cc([C@H]2Oc3cc(-c4cc(=O)c5c(O)cc(O)cc5o4)ccc3O[C@@H]2CO)ccc1O [Compound 7, (−)-hydnocarpin]	11.5 µg/mL	2.6 µg/mL	9.7 µg/mL	>20 µg/mL	moderate cytotoxicity	Cytotoxicity against HT-29 (in words) [7]: moderate cytotoxicity
COc1cc(-c2cc(=O)c3c(O)cc(O)cc3o2)ccc1O [Compound 8, chrysoeriol]	–	0.6 µg/mL	>20 µg/mL	>20 µg/mL	–	Potentiating effect on intracellular ROS levels in the presence of H2O2 [5]: exerted a potentiating effect; Elevation of intracellular ROS in the absence of H2O2 ([5]; compound alone): most significant elevation of intracellular ROS; Effect on mitochondrial transmembrane potential [9]: able to compromise the integrity of the mitochondrial membrane to a larger extent than the other test compounds; Inhibition of NF-κB translocation into the nucleus [10]: showed inhibition of translocation of NF-κB into the nucleus; NFAT translocation from the cytoplasm to the nucleus [11]: Induced activation of NFAT was confirmed by its translocation to the nucleus; Activity using the P-388 cell line [12]: moderately active; Cytotoxicity against HL-60 (in words) [2]: selective cytotoxicity against the HL-60 cell line
Cc1c2ccncc2c(C)c2c1[nH]c1ccccc12 [Ellipticine, ellipticine, reference compound]	–	1.3 µg/mL	3.5 µg/mL	3.6 µg/mL	–	–
COc1ccc([C@@]23Oc4cc(OC)cc(OC)c4[C@]2(O)[C@H](O)[C@H](C(=O)N(C)C)[C@H]3c2ccccc2)cc1 [Rocaglamide, reference compound]	–	–	–	–	–	Inhibition of NF-κB translocation into the nucleus [10]: inhibited the translocation
bruceajavanone A 7-acetate [Compound 1]	>20 µg/mL	>20 µg/mL	>20 µg/mL	>20 µg/mL	–	–
bruceajavanone C [Compound 3]	>20 µg/mL	>20 µg/mL	>20 µg/mL	>20 µg/mL	–	–
